{"source": "patent US8202886B2", "about": "“Small molecule E2F inhibitor” (H. Lee Moffitt Cancer Center and Research Institute, Inc., priority 2008, dated 2012)", "key": {"[1]": {"tested_on": "WT MEFS", "assay": "Apoptosis (ApoBrdU, PARP western) in WT MEFs", "assay_type": "cell-based, mouse", "experimental": "(§1) FIG. 12A: MEFS derived from sibling WT and E2F4^−/− mice were treated for 24-hrs with the indicated doses of HLM006474. Apoptosis was determined using ApoBrdU (BD Pharmingen).\n(§2) FIG. 12B: MEFS derived from sibling WT and E2F4^−/− mice were treated as in A subjected to western blotting using a PARP antibody or E2F4 antibody. PARP cleavage (as indicated by the arrow) is an independent measure of apoptosis.\n(§3) To determine if the effect of the therapeutic compound is dependent upon E2F4, the inventors compared the therapeutic compound response of immortalized MEFs derived from E2F4-deficient mice with MEFS derived from wildtype siblings."}, "[2]": {"tested_on": "NSCLC lines", "assay": "Western blots of cell cycle proteins in NSCLC lines", "assay_type": "cell-based", "conditions": "every cell line treated, 40 micromolar, 24 hrs", "experimental": "(§4) The indicated NSCLC lines were treated with 40 micromolar the therapeutic compound and subjected western blotting 24 hrs later using the indicated antibodies."}, "[3]": {"tested_on": "human foreskin fibroblasts (HFF)", "assay": "Apo-BrdU TUNEL apoptosis assay, HFF", "assay_type": "cell-based", "conditions": "40-μM, 24-hrs", "text": "(§5) To determine if treatment with the therapeutic compound contributes to apoptosis, Cells were detached from culture plates by trypsin treatment, washed twice with PBS, and fixed in 70% ethanol. Fixed cells were washed twice with PBS and treated with RNase A and propidium iodide (PI). PI staining was examined using a Becton-Dickinson FACScan instrument and Cell Quest software. TUNEL assay for apoptosis utilized a Pharmingen APO-BRDU Kit. MTS (3-(4,5-dimethylthiazol-2-yl)-5-(3-carboxymethoxyphenyl)-2-(4-sulfophenyl)-2H-tetrazolium, inner salt) assays were conducted using a CellTiter 96® AQueous One Cell Proliferation Assay Kit (Promega).\n(§6) A375, MDA-MB-231 (231), MCF-7 and human foreskin fibroblasts (HFF) cells were treated with 40-μM of the therapeutic compound for 24-hrs and subjected to a FACS based terminal deoxynucleotidyl transferase (TUNEL) assay (Apo-BrdU Kit from BD Pharmingen)."}, "[4]": {"tested_on": "A375 melanocytes", "assay": "Three-dimensional skin model of A375 proliferation and invasion", "assay_type": "cell-based, human", "conditions": "for activated caspase-3 positive cells (IHC): day 2, 5 or 8; for proliferation and invasion of melanocytes (S-100 IHC): day 12, 16 and 20", "experimental": "Culture inserts of differentiated full-thickness 3D skin reconstruction model of A375 melanoma cells were purchased from MatTek (Ashland, Mass.). These were prepared by culturing mixed suspensions of normal human epidermal keratinocytes and A375 cells (1:10 ratio) on fibroblast contracted collagen gels and allowing differentiation for approximately one week in serum free media to form a 3D skin-like structure. These cultures were treated with 0, 40 or 80 μM 6474 and harvested after 0, 2, 5, 8, 12, 16 and 20 days.\nIn this model, the highly metastatic A375 melanocytes were mixed with normal human keratinocytes and seeded on fibroblast-contracted collagen gels. The mixed cells were then induced to differentiate in serum free media to form three-dimensional, highly differentiated, full thickness skin-like tissues. After seven days of differentiation the cells were then treated with 0 (DMSO carrier alone), 40 or 80 μM the therapeutic compound. The three-dimensional models were then cultured for 2, 5, 8, 12, 16 and 20 days. At the appointed time, 3D cultures were fixed in formalin, paraffin embedded, sectioned and either stained with H&E or processed for immunohistochemistry (1HC) using antibodies against S-100 to measure expression of a melanocyte marker, E2F4 to determine if it were down regulated as in 2D culture, activated caspase-3 to measure apoptosis and […] to measure the proliferative index."}, "[5]": {"tested_on": "E2F complexes", "assay": "E2F EMSA on extracts of treated breast cancer cell lines", "assay_type": "cell-based", "conditions": "40 μM", "experimental": "Several breast cancer cell lines were treated with 40 μM HLM006474 and extracts subjected to E2F EMSA assay.\nQuantitative EMSA assays were performed in triplicate."}, "[6]": {"tested_on": "A375 cells", "assay": "MTS proliferation/viability over time", "assay_type": "cell-based, human", "conditions": "40 μM, 24-, 48- and 72-hrs", "experimental": "To examine its effect on a range of commonly studied cell lines, the inventors utilized standard MTS assays to quantify cell viability following the therapeutic compound treatment. Cytotoxicity was determined using MTS assays, which were conducted using a CellTiter 96® AQueous One Cell Proliferation Assay Kit (Promega) following the published protocol. […] Plates were read at 490 nm following 4 hrs MTS reaction time. The concentration of drug which produced a 50% inhibition of growth (IC50) was calculated from linear regression analysis of the linear portion of the growth curves."}, "[7]": {"tested_on": "H358", "assay": "Western blots of treated H358 cells", "assay_type": "cell-based", "conditions": "H358, 40 micromolar, 24 hrs", "experimental": "as §4"}, "[8]": {"tested_on": "E2F4-deficient MEFs", "assay": "Apoptosis (ApoBrdU, PARP western) in E2F4-deficient MEFs", "assay_type": "cell-based, mouse", "experimental": "as §1, §2, §3"}, "[9]": {"tested_on": "A549", "assay": "Western blots of treated A549 cells", "assay_type": "cell-based", "experimental": "In order to further examine the mechanism of action of the therapeutic compound four lung cancer cell lines were treated with various concentrations of drug and western blots performed on cell extracts after 24 hr."}, "[10]": {"tested_on": "MDA-MB-231", "assay": "Apo-BrdU TUNEL apoptosis assay, MDA-MB-231", "assay_type": "cell-based, human", "conditions": "40-μM, 24-hrs", "text": "as §5, §6"}, "[11]": {"conditions": "40 μM, listed as the therapeutic compound"}}}
{"smiles": "CCOc1ccc(C(Nc2ccccn2)c2ccc3ccc(C)nc3c2O)cc1C", "note": "(centres unmarked) [HLM006474]", "values": [{"measurement": "level of apoptosis in WT cells as compared to E2F4-deficient cells", "setting": "[1]; 24-hrs, ApoBrdU", "result": "two-fold increase"}, {"measurement": "concentration at which PARP cleavage is evident", "setting": "[1]; E2F4 proficient MEFs", "result": 20, "unit": "µM"}, {"measurement": "Rb (western)", "setting": "[2]", "result": "down (at least modestly)"}, {"measurement": "apoptosis (TUNEL)", "setting": "[3]", "result": "did not induce an obvious increase in apoptosis"}, {"measurement": "effects on the other cells (fibroblasts and keratinocytes) of the 3D tissue", "setting": "[4]", "result": "no obvious deleterious effects"}, {"measurement": "E2F4 levels (IHC)", "setting": "[4]; 40 μM", "result": "clearly reduced"}, {"measurement": "Ki-67 staining", "setting": "[4]; 40 μM, day 2, 5 and 8", "result": "decrease in the number of proliferative cells"}, {"measurement": "activated caspase-3 positive cells (IHC)", "setting": "[4]; 40 μM", "result": "no detectable increase in apoptotic cells"}, {"measurement": "activated caspase-3 positive cells (IHC)", "setting": "[4]; [11]", "result": "no significant difference"}, {"measurement": "proliferation and invasion of melanocytes (S-100 IHC)", "setting": "[4]; 40 μM", "result": "very rare"}, {"measurement": "proliferation and invasion of melanocytes (S-100 IHC)", "setting": "[4]; [11]", "result": "significantly inhibited the proliferation and subsequent invasion"}, {"measurement": "melanocyte proliferation (H&E)", "setting": "[4]; 80 μM", "result": "essentially no melanocyte proliferation"}, {"measurement": "DNA-binding of all E2F complexes (EMSA)", "setting": "[5]", "result": "inhibited"}, {"measurement": "cellular proliferation/viability (MTS)", "setting": "[6]", "result": "significantly affected"}, {"measurement": "cyclin A or E2F1 (western)", "setting": "[7]", "result": "no decrease"}, {"measurement": "sensitivity of E2F4 knockout MEFs versus cells from littermate animals", "setting": "[8]", "result": "less sensitive"}, {"measurement": "concentration required to detect PARP cleavage", "setting": "[8]; E2F4-deficient MEFs", "result": 60, "unit": "µM"}, {"measurement": "Mcl-1 (western)", "setting": "[9]; A549, 40-μM", "result": "downregulation of Mcl-1"}, {"measurement": "sensitivity (downregulation of E2F1 and E2F4, PARP cleavage)", "setting": "[9]; A549, various concentrations, 24 hr", "result": "limited sensitivity"}, {"measurement": "apoptosis (TUNEL)", "setting": "[10]", "result": "dramatic induction of apoptosis"}]}
